From patent publication US12240869B2, “Inhibitors of cyclin-dependent kinase 7 (CDK7)” (Syros Pharmaceuticals, Inc., priority 2018, dated 2025)

What was measured:
[1] = test system: PDX models BR5010 (TNBC), LU5178 (SCLC), OV15398 (HGSOC); test: Tumor growth inhibition in TNBC, SCLC and HGSOC PDX models (Example 10); type: in vivo, NOD/SCID mice
[2] = test system: HR+ breast cancer cell line T47D (PIK3CA p.H1047R); test: In vitro combination study, CellTiter-Glo viability, CalcuSyn; type: cell-based; conditions: 5 days
[3] = test system: HR+ breast cancer cell line MCF7 (PIK3CA p.E545K); test: as above; type: cell-based; conditions: 5 days
[4] = test system: palbociclib and fulvestrant double-resistant ER+BC PDX model (ST941); test: Tumor growth inhibition in palbociclib and fulvestrant double-resistant PDX model; type: in vivo, mice; conditions: fulvestrant 2.5 mg/kg weekly SC
Procedure: (§1) Tumor growth inhibition was evaluated in estrogen receptor-positive breast cancer (ER+BC) PDX models selected in vivo for resistance to the CDK4/6 inhibitor palbociclib (ST1799, n=1) or resistance to both palbociclib and fulvestrant (ST941, n=1). Dosing was initiated when tumors were 100-200 mm^3.

[5] = test system: ST390 (modeling pancreatic ductal adenocarcinoma (PDAC)); test: Tumor growth inhibition in PDAC PDX model; type: in vivo; conditions: 6 mg/kg QD PO, over ~28 days, dose well below the MTD
Procedure: In the PDAC model, Compound 101 was orally administered to tumor-bearing NOD/SCID mice at 6 mg/kg QD. […] The % regression was calculated as: (Mean TV Compound 101 @ EOT)/(Mean TV Compound 101 @ Day 0)×100. The same calculations were used for end of study (day 42).

[6] = test system: CRC cell line SW480 (KRAS p.G12V mutant); test: In vitro combination study, CellTiter-Glo viability, CalcuSyn; type: cell-based; conditions: 5 days
[7] = test system: CRC cell line RKO (BRAF p.V600E mutant); test: as above; type: cell-based; conditions: 5 days
From the text: (§2) Combination effect is reflected by shift in IC50 of Compound 101 with addition of carboplatin or oxaliplatin or increased antiproliferative effect with lower amounts of either single agent. This is visualized in the isobolograms of FIG. 5, where points below the diagonal line reflect synergy.

[8] = test system: SCLC cell line (NCI-H1048); test: as above; type: cell-based; conditions: 5 days; median effect principle (Chou-Talalay)
From the text: as §2

[9] = test system: palbociclib-resistant ER+BC PDX (ST1799) model; test: Tumor growth inhibition in palbociclib-resistant PDX model; type: in vivo, mice; conditions: last day of 28-day dosing, Compound 101 6 mg/kg QD PO, fulvestrant 2.5 mg/kg weekly SC, palbociclib 50 mpk QD PO
Procedure: as §1

[10] = test system: 12 PDX models representing SCLC, TNBC and HGSOC; test: TGI in 12 PDX models (Example 12); type: in vivo
Procedure: Dosing was initiated when tumors were 150-300 mm^3. […] TGI was calculated on the last day of dosing using the formula: TGI=(Vc1−Vt1)/(Vc0−Vt0), where Vc1 and Vt1 are the mean volumes of control and treated groups at the time of tumor extraction, while Vc0 and Vt0 are the same groups at the start of dosing.

| SMILES | transcriptional responses in xenograft tissue ([1]; after dosing) | TGI, in words ([1]; oral, 21 days, TNBC 10 mg/kg QD or 5 mg/kg BID, SCLC and HGSOC 3 mg/kg BID, followed 21 days after treatment) | combination effect with alpelisib [2] | combination effect with capecitabine ([3]; HR+ MCF-7 cells) | combination effect with alpelisib ([3]; PIK3CA p.E545K) | Tumor growth inhibition (TGI) ([4]; last day of 28-day dosing, Compound 101 6 mg/kg QD PO) [%] | TGI [5] [%] | combination effect with trametinib [6] | combination effect with oxaliplatin ([7]; median effect principle (Chou-Talalay)) | combination effect with trametinib ([7]; BRAF p.V600E mutant CRC) | combination effect with carboplatin [8] | combination effect with gemcitabine [8] | Tumor growth inhibition (TGI) [9] [%] | tolerability / body weight loss ([10]; all once-daily doses tested, tumor-bearing mice) | TGI of deep responses ([10]; subset of models (58%, 7/12), TGI or regression) [%] | MTD ([10]; tumor-bearing mice) | activity (tumor growth inhibition), in words ([4]; palbociclib 50 mpk QD PO) |
| --- | --- | --- | --- | --- | --- | --- | --- | --- | --- | --- | --- | --- | --- | --- | --- | --- | --- |
| CC1(C)CC[C@H](Nc2ncc(C(F)(F)F)c(-c3c[nH]c4c(P(C)(C)=O)c(C#N)ccc34)n2)CN1 [Compound 101, (S)-7-(dimethylphosphoryl)-3-(2-((6,6-dimethylpiperidin-3-yl)amino)-5-(trifluoromethyl)pyrimidin-4-yl)-1H-indole-6-carbonitrile] | Dose-dependent transcriptional responses in xenograft tissue were observed within 4 hours of dosing and were sustained for 24 hours | deep and sustained TGI, including regressions | significant synergy | showed synergy and was superior to either agent alone | significant synergy | 33 | 100 | significant synergy | showed synergy and was superior to either agent alone | significant synergy | showed synergy and was superior to either agent alone | showed synergy and was superior to either agent alone | 83 | well tolerated, with no evident body weight loss | > 95 | above 10 mg/kg once daily |  |
| C[C@]12CC[C@@H]3c4ccc(O)cc4C[C@@H](CCCCCCCCC[S+]([O-])CCCC(F)(F)C(F)(F)F)[C@H]3[C@@H]1CC[C@@H]2O (some centres unmarked) [fulvestrant, reference compound] |  |  |  |  |  |  |  |  |  |  |  |  |  |  |  |  | no activity |
